# From US20060292243A1, “Arsenic compounds for the treatment of the arsenic-sensitive blast-cell related diseases” (priority 2005, published 2006)
# Several values for one entry are separate records, joined by “and”; a condition that tells them apart may be missing. Identical values can stand only once. Entries after “also recorded” stand apart in the source; their conditions may differ. Marks after values point to notes of the source that are not given here.
# Columns and labels:
# ssDNA = assay: Serum IgG anti-ssDNA ELISA in SLE model mice; assay type: in vivo, NZB/NZW mice
# Description: In vivo studies on the activity of arsenic compound were carried out by using an experimental animal model of human Systemic Lupus Erythematosus. NZB/NZW denotes the mouse strain that spontaneously develops an autoimmune syndrome having notable similarities to human Systemic Lupus Erythematosus. Autoimmune disease in NZB/NZW mice is characterized by antinuclear antibodies (IgG) production about 4 months of age, and glomerulonephritis with proteinuria is developed when at 9 months of age, and that is the major cause of death (uremia).
# At 24 weeks of age, mice (3 groups) were treated 3 times per week with PBS (Group I as positive control), 2.5 mg/kg of As2O3 (Group II), or 5 mg/kg of As2O3 (Group III) administered intraperitoneally. The treatment was stopped at 28 weeks of age. Mice were observed daily for clinical signs of disease and for mortality and were bled every 4 weeks for determination of anti-DNA antibody production.
# Standard ELISA assay to measure the serum levels of anti-DNA antibodies was performed as follows. The plates were coated 10 μg/mL mBSA 4° C. overnight before coating dsDNA and ssDNA diluted with PBS to concentration of 7.5 μg/mL. ssDNA was prepared by boiling for 20 min then placed on ice immediately for 20 min. After overnight incubation at 4° C., the plates were washed and blocked with gelatin-PBS solution. The serum was diluted and then added to the appropriate wells, which were then incubated at 37° C. for 45 min. Horseradish peroxidase-comjugated anti-mouse γ-chain-specific antibodies were added. After incubation at 37° C. for 50 min, then room temperature for 10 min, 2,2′-azino-bisC3-ethylbenzthiazoline-6-sulphonic acid (ABTS) solution was used as substrate and the absorbance was measured at 405 nm. The level of anti-DNA IgG is presented as ELISA units (EU/ml) compared with mAb 10F10. The OD value generated by 74 ng/ml of 10F10 Ab was defined as 1 EU/ml for anti-DNA IgG. The level of anti-nucleosome IgG was calculated as EU by comparison with 10F10 Ab. The absorbance value generated by 231 ng/ml of 10F10 Ab was defined as 1 EU/ml of anti-nucleosome IgG.
# T lymphocytes (CD3+) = assay: Caspase-3 (Phiphilux) apoptosis within gated PBMC subsets; assay type: cell-based
# From the text: 3. The detection of apoptosis within different subsets of PBMCs by the combination of mAb-fluorescein tandem staining and the treatment of Phiphilux through flowcytometry. Phiphilux is a substrate of caspase-3, composed of a specific oligo-peptide with its sequence subjected to functional caspase-3 cutting and, at each end of the peptide, is covalently coupled to two identical fluorophores.
# Thus, the conclusion is that T lymphocytes are more sensitive to arsenic trioxide according the flow data.
# Eotaxin = Eotaxin in BALF by ELISA, OVA-immunized mice; assay type: in vivo, BALB/c mice
# Description: (§1) BALB/c mice (female, 6-8 weeks) were immunized with ovalbumin (OVA) at day 0, 14, 21 and 28. 38 days later, animals were injected with arsenic trioxide (ATO) i.p. for 7 days and antigen challenges with OVA were performed at day 42, 43, 44. At day 45, the airway enhanced pause (PenH) values were measured. 48 hours after the last antigen challenges, the mice were sacrificed, the trachea cannulated, and bronchoalveolar lavage (BAL) was performed by four repeated lavages with balanced salt solution (HBSS) injected into the lungs via the trachea. Total cell counts were performed with a hemocytometer after staining with trypan blue, and then cytospins were prepared, and a differential count of 300 cells per slide was performed. To obtain the absolute number of each leukocyte subtype in the lavage, the percentage of each cell type was multiplied by the total number of cells that were recovered from the bronchoalveolar lavage fluid (BALF). Eotaxin in the BALF was measured via ELISA. Four groups of mice were treated as Table 3.1.
# (§2) Group A mice were challenged by PBS only and then treated by PBS, too. Group B mice were immunized by ovalbumin and then treated by PBS only. Group C mice were immunized by ovalbumin and then treated by arsenic trioxide in a dosage of 2.5 mg per kg for mice. Group D mice were challenged by ovalbumin as group B and C and then treated by arsenic trioxide in a dosage of 5 mg/kg.
# [1] = test system: PBMCs (peripheral blood mononuclear cells); assay: PI staining, cell death within all PBMCs by flowcytometry; assay type: cell-based
# From the text: Arsenic trioxide (Asadin®) induces differentiation and apoptosis of malignant cells in vitro and in vivo and has been used in the treatment of a variety of hematological malignancies, the main goal of this example is to try to identify the apoptotic effect of arsenic trioxide on various PBMCs (peripheral blood mononuclear cells), and the methodologies used in this invention include:
# 1. The isolation procedure using Ficoll Plaque for exploiting the different densities of RBCs and PBMCs to separate them.
# 2. The detection of apoptosis by PI staining through flowcytometry.
# In the PI-based study, under different concentrations of arsenic trioxide (0, 0.5, 2.5, 5, or 10 μM), the percentages of cell death (within all PBMCs) in 24 hr and 48 hr were calculated respectively in Table 1.1.
# BALB/c mice = assay: Airway responsiveness to methacholine (PenH, pulmonary function test), OVA-immunized mice; assay type: in vivo
# Description: as §1, §2
# The mice were challenged with methacholine (Mch.) in an increasing concentration and the airway constriction of the mice was measured by using pulmonary function test, whereafter the data of Table 3.5 was obtained. […] The result is also consistent with the results of eotaxin and eosinophil in BALF.
# OVA-specific IgE = OVA-specific IgE in serum of OVA-immunized mice; assay type: in vivo, BALB/c mice
# Description: as §1
# Group A mice were challenged by PBS only and then treated by PBS, too. Group B mice were immunized by ovalbumin and then treated by PBS only. […]
# After antigen challenges, mice serum were prepared and OVA-specific IgE values in serum were detected for evidence of immunization.
# Fibroblasts = assay: DAPI staining of apoptotic bodies in fibroblasts; assay type: cell-based, human; details: 24 hours
# Description: Fibroblasts were treated with different concentrations of ATO for 24 hours, cells were fixed and the apoptotic bodies were detected by DAPI staining.
# [2] = Group C: OVA, ATO 2.5 mg/kg i.p. for 7 days
# [3] = Group D: OVA, ATO 5 mg/kg i.p. for 7 days
substance,measurement,setting,value
arsenic trioxide,IgG Anti-ssDNA titer,"ssDNA; 2.5 mg/kg i.p. 3 times per week, before treatment",0.155 ELISA Unit
same,IgG Anti-ssDNA titer,"ssDNA; 2.5 mg/kg, 4 weeks after treatment",0.347 ELISA Unit
same,IgG Anti-ssDNA titer,"ssDNA; 2.5 mg/kg, 8 weeks after treatment",0.400 ELISA Unit
same,IgG Anti-ssDNA titer,"ssDNA; 2.5 mg/kg, 12 weeks after treatment",0.105 ELISA Unit
same,IgG Anti-ssDNA titer,"ssDNA; 5 mg/kg i.p. 3 times per week, before treatment",0.176 ELISA Unit
same,IgG Anti-ssDNA titer,"ssDNA; 5 mg/kg, 4 weeks after treatment",0.303 ELISA Unit
same,IgG Anti-ssDNA titer,"ssDNA; 5 mg/kg, 8 weeks after treatment",0.296 ELISA Unit
same,IgG Anti-ssDNA titer,"ssDNA; 5 mg/kg, 12 weeks after treatment",0.201 ELISA Unit
same,Levels of T cell apoptosis (%) after 48 hr treatment,T lymphocytes (CD3+); 1 μM,36.1%
same,Levels of T cell apoptosis (%) after 48 hr treatment,T lymphocytes (CD3+); 5 μM,96% and 96.2%
same,"eotaxin in BALF, Mean",Eotaxin; [2],12.38* pg/ml
same,"eotaxin in BALF, Mean",Eotaxin; [3],16.00 pg/mL
same,effect on eotaxin level after antigen challenge,"Eotaxin; especially 2.5 mg/kg, group C vs group B p<0.05",diminish the eotaxin level
same,24 hr % cell death,[1]; 0.5 μM,7.3 ± 1.2%
same,48 hr % cell death,[1]; 0.5 μM,7.6 ± 0.6%
same,24 hr % cell death,[1]; 2.5 μM,13.7 ± 1.6%
same,48 hr % cell death,[1]; 2.5 μM,15.2 ± 2.3%
same,24 hr % cell death,[1]; 5.0 μM,14.6 ± 2.1%
same,48 hr % cell death,[1]; 5.0 μM,17.2 ± 1.9%
same,24 hr % cell death,[1]; 10 μM,17.8 ± 1.8%
same,48 hr % cell death,[1]; 10 μM,20.3 ± 2.6%
same,effect on airway hyper-reactivity / responsiveness to methacholine,"BALB/c mice; BALB/c mice, especially 2.5 mg/kg",does decrease the airway responsiveness; also recorded: successfully blocked
same,airway constriction by pulmonary function test (PenH),"BALB/c mice; Group C: ATO 2.5 mg/kg, Mch 6.25 mg/ml, mean ± SD",3.62 ± 0.47
same,airway constriction by pulmonary function test (PenH),"BALB/c mice; Group C: ATO 2.5 mg/kg, Mch 12.5 mg/ml, mean ± SD",7.83 ± 1.13
same,airway constriction by pulmonary function test (PenH),"BALB/c mice; Group C: ATO 2.5 mg/kg, Mch 25 mg/ml, mean ± SD, p<0.05 vs Group B",10.15 ± 0.84
same,airway constriction by pulmonary function test (PenH),"BALB/c mice; Group C: ATO 2.5 mg/kg, Mch 50 mg/ml, mean, p<0.05 vs Group B",9.83
same,airway constriction by pulmonary function test (PenH),"BALB/c mice; Group D: ATO 5 mg/kg, Mch 6.25 mg/ml, mean ± SD",2.55 ± 0.35
same,airway constriction by pulmonary function test (PenH),"BALB/c mice; Group D: ATO 5 mg/kg, Mch 12.5 mg/ml, mean ± SD",8.82 ± 0.88
same,airway constriction by pulmonary function test (PenH),"BALB/c mice; Group D: ATO 5 mg/kg, Mch 25 mg/ml, mean ± SD",11.57 ± 1.52
same,airway constriction by pulmonary function test (PenH),"BALB/c mice; Group D: ATO 5 mg/kg, Mch 50 mg/ml, mean",12.51
same,"OVA-specific IgE (SI.) in serum, Mean",OVA-specific IgE; [2],2.20 SI.
same,"OVA-specific IgE (SI.) in serum, Mean",OVA-specific IgE; [3],1.96 SI.
same,apoptotic bodies by DAPI staining,Fibroblasts; 1 μM,no obvious apoptosis
same,apoptotic bodies by DAPI staining,Fibroblasts; 2.5 μM,no obvious apoptosis
same,apoptotic bodies by DAPI staining,Fibroblasts; 5 μM,obvious apoptotic bodies present
same,apoptotic bodies by DAPI staining,Fibroblasts; 10 μM,both apoptosis and necrosis
